SMILES strings stand for the structures.

The test concerns the target SARS-CoV-2 Mpro (Severe acute respiratory syndrome coronavirus 2, UniProt P0DTD1). The test is classed as biochemical.

The compound `Cc1cncc(C(=O)NC[C@H]2c3ccccc3CCN2C(=O)c2cccn3nnnc23)c1` [Z4921675438] returned an IC50 of 10.8 µM.
In turn, `O=C(NC[C@H](NC(=O)c1cncc2sccc12)c1ccc2ccccc2c1)c1cocn1` [Z4921678803] returned an IC50 of 12.1 µM.
In the case of `O=C(NC[C@@H]1CC2(CCC2)CN1C(=O)c1ccc(F)c(O)c1)c1cncc2ccccc12` [Z4927220858], it took 11.2 µM to reach half-maximal inhibition (IC50).

In general, IC50 refers to the concentration at which inhibition is half-maximal. Low values mean greater potency, high ones weaker potency.

The values above are taken from PMC8672713 (Chemical Science, 2021).
